Measured values from US8802597B2, “Herbicidal pyrimidines” (E I du Pont de Nemours and Company, priority 2003, dated 2014).
Where two headings read alike, the source gives them in different places.

Key:
Assay in all cases: Test C pre/postemergence
Assay type in all cases: in vivo
[1] = test system: Surinam grass (Brachiaria decumbens); details: Urochloa decumbens, pre-emergence, Preemergence, scale 0 to 100, 0 no effect, 100 complete control, read-out: Plant response rating, Surinam Grass
Method in brief: (§1)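 Rating scale 0–100: 0 means no effect, 100 complete control; taken visually 12 to 14 days post-treatment versus controls. Pre- and postemergence greenhouse applications, postemergence at 1- to 4-leaf stage, non-phytotoxic solvent with surfactant as carrier.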

kochia (Kochia scoparia) = details: Bassia scoparia; for pest or weed control at 31 g/ha: 31 g ai/ha; for pest or weed control at 62 g/ha: 62 g ai/ha; for pest or weed control at 125 g/ha: 125 g ai/ha
Method in brief: as §1

[2] = test system: giant foxtail (Setaria faberii); details: Setaria faberi; for pest or weed control at 125 g/ha: 125 g ai/ha; for pest or weed control at 31 g/ha: 31 g ai/ha; for pest or weed control at 62 g/ha: 62 g ai/ha
Method in brief: as §1

[3] = test system: goosegrass (Eleusine indica); details: Eleusine indica; for pest or weed control at 31 g/ha: 31 g ai/ha; for pest or weed control at 62 g/ha: 62 g ai/ha; for pest or weed control at 125 g/ha: 125 g ai/ha
Method in brief: as §1

[4] = test system: common (oilseed) sunflower (Helianthus annuus); details: Helianthus annuus, pre-emergence, Preemergence, scale 0 to 100, 0 no effect, 100 complete control, read-out: Plant response rating, Sunflower
Method in brief: as §1

[5] = test system: bermudagrass (Cynodon dactylon); details: Cynodon dactylon; for pest or weed control at 31 g/ha: 31 g ai/ha; for pest or weed control at 62 g/ha: 62 g ai/ha; for pest or weed control at 125 g/ha: 125 g ai/ha
Method in brief: as §1

[6] = test system: woolly cupgrass (Eriochloa villosa); details: Eriochloa villosa; for pest or weed control at 31 g/ha: 31 g ai/ha; for pest or weed control at 62 g/ha: 62 g ai/ha
Method in brief: as §1

[7] = post-emergence, Postemergence, read-out: Plant response rating (scale of 0 to 100), Kochia
[8] = pre-emergence, Preemergence, scale 0 to 100, 0 no effect, 100 complete control, read-out: Plant response rating, Kochia
[9] = post-emergence, Postemergence, read-out: Plant response rating (scale of 0 to 100), Foxtail, Giant
[10] = pre-emergence, Preemergence, scale 0 to 100, 0 no effect, 100 complete control, read-out: Plant response rating, Foxtail, Giant
[11] = post-emergence, Postemergence, read-out: Plant response rating (scale of 0 to 100), Goosegrass
[12] = pre-emergence, Preemergence, scale 0 to 100, 0 no effect, 100 complete control, read-out: Plant response rating, Goosegrass
[13] = post-emergence, Postemergence, scale 0 to 100 (0 no effect, 100 complete control), read-out: Bermudagrass plant response rating
[14] = pre-emergence, Preemergence, scale 0 to 100, 0 no effect, 100 complete control, read-out: Plant response rating, Bermudagrass
[15] = post-emergence, Postemergence, read-out: Plant response rating (scale of 0 to 100), Cupgrass, Woolly
[16] = pre-emergence, Preemergence, scale 0 to 100, 0 no effect, 100 complete control, read-out: Plant response rating, Cupgrass, Woolly

Nc1nc(C2CC2)nc(C(=O)OCc2ccccc2)c1Cl [Compound 78, phenylmethyl 6-amino-5-chloro-2-cyclopropyl-4-pyrimidinecarboxylate]
pest or weed control at 31 g/ha ([1]; 31 g ai/ha): 0% | pest or weed control at 62 g/ha ([1]; 62 g ai/ha): 0% | pest or weed control at 31 g/ha (kochia (Kochia scoparia); [7]): 90% | pest or weed control at 62 g/ha (kochia (Kochia scoparia); [7]): 90% | pest or weed control at 125 g/ha (kochia (Kochia scoparia); post-emergence, Postemergence, scale 0 to 100 (0 no effect, 100 complete control), read-out: Kochia plant response rating): 95% | pest or weed control at 250 g/ha (kochia (Kochia scoparia); post-emergence, Postemergence, 250 g ai/ha, scale 0 to 100, read-out: Plant response rating, Kochia): 95% | pest or weed control at 16 g/ha (kochia (Kochia scoparia); pre-emergence, Preemergence, 16 g ai/ha, scale 0 to 100, 0 no effect, 100 complete control, read-out: Plant response rating, Kochia): 70% | pest or weed control at 31 g/ha (kochia (Kochia scoparia); [8]): 80% | pest or weed control at 62 g/ha (kochia (Kochia scoparia); [8]): 100% | pest or weed control at 125 g/ha (kochia (Kochia scoparia); pre-emergence, Preemergence, scale 0 to 100, read-out: Plant response rating, Kochia): 100% | pest or weed control at 125 g/ha ([2]; post-emergence, Postemergence, scale 0 to 100 (0 no effect, 100 complete control), read-out: Foxtail, Giant plant response rating): 65% | pest or weed control at 31 g/ha [2, 9]: 0% | pest or weed control at 62 g/ha [2, 9]: 30% | pest or weed control at 250 g/ha ([2]; post-emergence, Postemergence, 250 g ai/ha, scale 0 to 100, read-out: Plant response rating, Foxtail, Giant): 70% | pest or weed control at 16 g/ha ([2]; pre-emergence, Preemergence, 16 g ai/ha, scale 0 to 100, 0 no effect, 100 complete control, read-out: Plant response rating, Foxtail, Giant): 0% | pest or weed control at 31 g/ha [2, 10]: 0% | pest or weed control at 62 g/ha [2, 10]: 0% | pest or weed control at 125 g/ha ([2]; pre-emergence, Preemergence, scale 0 to 100, read-out: Plant response rating, Foxtail, Giant): 0% | pest or weed control at 31 g/ha [3, 11]: 0% | pest or weed control at 62 g/ha [3, 11]: 0% | pest or weed control at 125 g/ha ([3]; post-emergence, Postemergence, scale 0 to 100 (0 no effect, 100 complete control), read-out: Goosegrass plant response rating): 40% | pest or weed control at 250 g/ha ([3]; post-emergence, Postemergence, 250 g ai/ha, scale 0 to 100, read-out: Plant response rating, Goosegrass): 50% | pest or weed control at 16 g/ha ([3]; pre-emergence, Preemergence, 16 g ai/ha, scale 0 to 100, 0 no effect, 100 complete control, read-out: Plant response rating, Goosegrass): 0% | pest or weed control at 31 g/ha [3, 12]: 0% | pest or weed control at 62 g/ha [3, 12]: 0% | pest or weed control at 125 g/ha ([3]; pre-emergence, Preemergence, scale 0 to 100, read-out: Plant response rating, Goosegrass): 0% | pest or weed control at 16 g/ha ([4]; 16 g ai/ha): 50% | pest or weed control at 31 g/ha ([4]; 31 g ai/ha): 70% | pest or weed control at 62 g/ha ([4]; 62 g ai/ha): 100% | pest or weed control at 31 g/ha ([5]; post-emergence, Postemergence, read-out: Plant response rating (scale of 0 to 100), Bermudagrass): 60% | pest or weed control at 62 g/ha [5, 13]: 60% | pest or weed control at 125 g/ha [5, 13]: 60% | pest or weed control at 250 g/ha ([5]; post-emergence, Postemergence, 250 g ai/ha, scale 0 to 100, read-out: Plant response rating, Bermudagrass): 65% | pest or weed control at 16 g/ha ([5]; pre-emergence, Preemergence, 16 g ai/ha, scale 0 to 100, 0 no effect, 100 complete control, read-out: Plant response rating, Bermudagrass): 0% | pest or weed control at 31 g/ha [5, 14]: 0% | pest or weed control at 62 g/ha [5, 14]: 0% | pest or weed control at 125 g/ha ([5]; pre-emergence, Preemergence, scale 0 to 100, read-out: Plant response rating, Bermudagrass): 20% | pest or weed control at 31 g/ha [6, 15]: 50% | pest or weed control at 62 g/ha [6, 15]: 55% | pest or weed control at 250 g/ha ([6]; post-emergence, Postemergence, 250 g ai/ha, scale 0 to 100, read-out: Plant response rating, Cupgrass, Woolly): 90% | pest or weed control at 16 g/ha ([6]; pre-emergence, Preemergence, 16 g ai/ha, scale 0 to 100, 0 no effect, 100 complete control, read-out: Plant response rating, Cupgrass, Woolly): 0% | pest or weed control at 31 g/ha [6, 16]: 0% | pest or weed control at 62 g/ha [6, 16]: 0% | pest or weed control at 125 g/ha ([6]; pre-emergence, Preemergence, 125 g ai/ha, scale 0 to 100, read-out: Plant response rating, Cupgrass, Woolly): 10%
